Measurements from patent US12447171B2 (CELGENE QUANTICEL RESEARCH, INC., priority 2019, dated 2025).

Assays:
BaF-FLT3-ITD = experiment: Cell viability assay (Cell Titer-Glo), BaF3 cells expressing FLT3; format: cell-based; details: Mus musculus
MOLM-13 xenograft model = experiment: Disseminated MOLM-13 xenograft survival study; format: in vivo, mice; details: for Median survival: MOLM-13, NOD/SCID mice, vehicle=19 days; for survival compared to vehicle alone: MOLM-13
Procedure: LEED models oral administration of AZA, while HELD models intravenous or subcutaneous administration of AZA.
The animals were fed ad libitum water (reverse osmosis, 1 ppm Cl), and NIH 31 Modified and Irradiated Lab Diet® consisting of 18.0% crude protein, 5.0% crude fat, and 5.0% crude fiber. The mice were housed on irradiated Enrich-o'cobs™ Laboratory Animal Bedding in static microisolators on a 12-hour light cycle at 20-22° C. (68-72° F.) and 40-60% humidity.
On each day of dosing, an appropriate amount of gilteritinib was dissolved in 0.5% methylcellulose in DI water to yield a dosing solution at 0.4 mg/mL. Each week, an appropriate amount of venetoclax was dissolved in 10% ethanol:30% PEG400:60% phosal 50 propylene glycol to yield a dosing solution at 10 mg/mL. […] Each test mouse received 5×10^6 MOLM-13 cells or 10^7 MV4-11 cells (0.2 mL cell suspension) by tail vein injection. Dosing was initiated three days after tumor cell inoculation, which was designated as Day 1 of the study. NOD/SCID mice (n=9-12/group) were randomized according to body weight and dosed. […] Vehicle was administered both IP and PO. The dosing volume for all treatments was 10 mL/kg, scaled to the weight of each individual animal.
Animals were monitored individually for an endpoint of moribundity due to progression of the leukemia. Full hind limb paralysis, severe ocular proptosis, or moribundity was considered sufficient for euthanasia due to tumor progression. Moribund animals were defined as sick animals unable to reach food and water. These deaths were classified as death on survival study. The time to endpoint (TTE), in days, was recorded for each mouse that died of its disease or was euthanized due to extensive tumor progression. […] An animal classified as having died from treatment-related (TR) causes was assigned a TTE value equal to the day of death. An animal classified as having died from non-treatment-related (NTR) causes, or used for sampling before endpoint, was excluded from TTE calculations and all further analyses. The median TTE value was calculated for each group. The median TTE of treated mice was expressed as a percentage of the median TTE of the control mice (% T/C), and the increase in life span (ILS) was calculated as: ILS=% T/C−100%, where T=median TTE treated, and C=median TTE control. Thus, if T=C, ILS=0%.
Animals were weighed daily on Days 1-5, then twice per week until the completion of the study. […] Individual body weight loss was monitored as per protocol and any animal that exceeded the limits for acceptable body weight loss was euthanized. Group mean body weight loss also was monitored as per protocol. Dosing was suspended in any group that exceeded the limits for acceptable mean body weight loss. If mean body weight recovered, then dosing may be resumed in that group, but at a lower dosage or less frequent dosing schedule. Acceptable toxicity for the maximum tolerated dose was defined as a group mean body-weight loss of less than 20% during the study and not more than one TR death among ten treated animals. […] A death was classified as NTR if there was no evidence that death was related to treatment side effects or tumor progression. Non-treatment-related deaths may be further characterized based on cause of death. A death may be classified as NTRa if it resulted from an accident or human error. A death may be classified as NTRu if the cause of death is unknown and there is no available evidence of death related to treatment side effects, metastasis, accident or human error, although death due to these etiologies cannot be excluded. Survival was analyzed by the Kaplan-Meier method, based on TTE values. The logrank (Mantel-Cox) and Gehan-Breslow-Wilcoxon tests determined the significance of the difference between the overall survival experiences (survival curves) of two groups, based on TTE values.
These experiments were repeated with a second FLT3-ITD cell line, MOLM-13.

[1] = test system: activating transcription factor 3 (ATF3); experiment: ATF3 expression (RNAseq, real-time PCR) in MV4-11 cells; format: cell-based
Procedure: After treatment, cells were recovered, washed once in PBS, and flash frozen as cell pellets. Cell pellets were sent to Canopy Biosciences for RNA extraction and library preparation and sequencing. RNA was extracted using the Qiagen RNeasy Mini Kit according to manufacturer's instructions. A modified protocol was used to preserve miRNA species. Total RNA Seq libraries were prepared using 200 ng of total RNA and the NEBNext Ultra II Directional Library prep kit. rRNA depletion was performed using an RNase-H based method (New England Biolabs, Ipswich, MA). MCL1 RNA levels in other cell lines were quantified by RNASeq using standard methods.
Libraries were multiplexed and sequenced using Illumina HiSeq. All gene counts were then imported into the R/Bioconductor package EdgeR and TMM normalization size factors were calculated to adjust for samples for differences in library size. Ribosomal genes and genes not expressed in the smallest group size minus one samples greater than one count-per-million were excluded from further analysis. […] Global perturbations in known Gene Ontology (GO) terms and KEGG pathways were detected using the R/Bioconductor package GAGE to test for changes in expression of the reported log 2 fold-changes reported by Limma in each term versus the background log 2 fold-changes of all genes found outside the respective term. […]

BaF-FLT3(WT) = experiment: Cell viability assay (Cell Titer-Glo), BaF3 cells expressing FLT3; format: cell-based; details: Mus musculus

Nc1ncn([C@@H]2O[C@H](CO)[C@@H](O)[C@H]2O)c(=O)n1 [5-azacytidine, 4-amino-1-B-D-ribofuranosyl-1,3,5-triazin-2(1H)-one]
EC50 (BaF-FLT3-ITD): 598 nM | Median survival (MOLM-13 xenograft model; HELD 5-azacytidine 3 mg/kg IP qd×5, alone or with midostaurin 100, gilteritinib 4 or venetoclax 100 mg/kg PO qd×21): 32 days | Median survival (MOLM-13 xenograft model; LEED 5-azacytidine 1 mg/kg IP qd×15, alone or with midostaurin 100, gilteritinib 4 or venetoclax 100 mg/kg PO qd×21): 36 days | survival compared to vehicle alone (MOLM-13 xenograft model; HELD 5-azacytidine 3 mg/kg IP qd×5, alone or in combination): statistically significantly increases in survival | survival compared to vehicle alone (MOLM-13 xenograft model; LEED 5-azacytidine 1 mg/kg IP qd×15, alone or in combination): statistically significantly increases in survival | ATF3 expression (real-time PCR) ([1]; MV4-11, 0.3 μM 5-azacytidine, 24 or 48 hours): not sufficient to induce ATF3 expression | ATF3 expression increase ([1]; RNAseq, MV4-11, 1 μM, 48 hours): two-fold | EC50 (BaF-FLT3(WT)): 189 nM
